Patent US10877036B2, “Biosensor based on Gβγ-interacting proteins to monitor G-protein activation” (priority 2014, dated 2020)
pEC50: −log10 of the molar value. Where two headings read alike, the source gives them in different places.

Key:
Type in all cases: cell-based
TPαR [1] = target: T1, TPαR (Homo sapiens, UniProt P21731); assay: Rluc protein complementation assay (GRK2-Rluc F1/Rluc F2-Gγ5/Gβ1/Gα11), TPαR in HEK293 cells; settings: Rluc-PCA, FIG. 9B, read-out: EC50 of G11 protein activation (luminescence)
T1 construct: host or cells: HEK293
T1 sequence (P21731 1-343): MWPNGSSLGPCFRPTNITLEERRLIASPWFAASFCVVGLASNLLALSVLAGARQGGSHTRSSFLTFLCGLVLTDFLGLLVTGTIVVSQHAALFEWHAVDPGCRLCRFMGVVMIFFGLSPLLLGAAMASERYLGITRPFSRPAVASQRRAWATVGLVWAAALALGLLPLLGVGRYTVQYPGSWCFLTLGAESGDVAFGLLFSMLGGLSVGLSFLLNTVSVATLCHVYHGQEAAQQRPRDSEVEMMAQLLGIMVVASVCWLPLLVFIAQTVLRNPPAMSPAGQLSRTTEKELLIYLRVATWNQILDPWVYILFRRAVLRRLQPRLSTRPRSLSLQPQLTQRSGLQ
Protocol: Cell culture and transfections. Human embryonic kidney 293 (HEK293) cells were maintained in Dulbecco's Modified Eagle's Medium (DMEM) supplemented with 10% fetal bovine serum, 100 unit/ml penicillin/streptomycin at 37° C. in a humidified atmosphere with 5% CO2. Two days before the experiments, HEK293 cells were transfected with the indicated plasmids using poly-ethylenimine 25-kDa linear (PEI) as a transfecting agent (at a ratio of 3 to 1, PEI/DNA) (Hamdan, Rochdi et al. 2007), and then directly seeded in 96-well plates pre-treated with poly-L-ornithine hydrobromide or Poly-D-Lysine, at a density of 35,000 cells per well (for BRET and PCA assays in living cells), or 6-well plates at a density of 1,000,000 cells per well (for BRET assays on membrane preparations).
Protein complementation assays using RlucII fragments. Cells were washed twice with PBS, followed by Tyrode buffer addition. The cells were then pre-treated with the Rluc substrate, coelenterazine 400a, at a final concentration of 2.5 μM for 30 min at 37° C. The different ligands or vehicle were added for an additional 10 min. Luminescence values were then collected using a Mithras™ LB940 Multimode Microplate Reader, without any filters.

TPαR [2] = target: T1, TPαR; assay: Polycistronic vector biosensor (GRK2-GFP, Rluc-Gγ5, Gβ1) co-transfected with TPαR and Gα11; settings: FIG. 11C
Text: Expression vectors: Biosensor constructs. Rluc-Gγ5 and GFP-Gγ: Plasmid encoding the fusion proteins Rluc-Gy1 to Gγ13 and GFP1O-Gγ5 were was obtained by PCR amplification of the Gγ coding sequences which were then fused in frame at its N-terminus to the humanized Renilla luciferase II (hRlucII) sequence (a variant of the hRluc previously reported (Leduc, Breton et al. 2009), SEQ ID NO:39) into pcDNA3.1 vector (linker sequence: GSAGT, SEQ ID NO: 33), or to the GFP10 (a variant form of the green fluorescent protein (GFP) previously reported (Mercier, Salahpour et al. 2002, SEQ ID NO:38). GRK2-GFP and GRK3-GFP: GRK2-GFP, GRK3-GFP, GRK2 Cterm (SEQ ID NO:50)-GFP, GRK3 Cterm (SEQ ID NO:51)-GFP were generated by PCR amplification of GRK2 and GRK3, which were then fused at their C-terminus to the GFP10 into pcDNA3.1 Zeo(+) vector, generating a linker of 11 amino acid residues between the GRK and the GFP10 protein (linker sequence: GSAGTGKLPAT, SEQ ID NO: 34). GFP-GRK2 and GFP-GRK3: […], GFP-GRK2 Cterm (SEQ ID NO:50), GFP-GRK3 Cterm (SEQ ID NO:51) were generated by PCR amplification of GRK2 and GRK3, which were then fused at their N-terminus to the GFP10 (SEQ ID NO:38) into pcDNA3.1 Zeo (+) vector, generating a linker of 7 amino acid residues between the GRK and the GFP10 protein (linker sequence: GSAGTGG, SEQ ID NO:52). […]

[3] = target: T2, thromboxane A2 receptor (TPαR) (Homo sapiens, UniProt P21731); assay: βγIP-based BRET biosensor (GRK2-GFP/Rluc-Gγ5/Gβ1 plus indicated Gα), agonist activation of TPαR in HEK293 cells; settings: read-out: potency of G-protein activation (dose-response curve)
T2 construct: host or cells: HEK293
T2 sequence (P21731 1-343): T1 sequence (P21731 1-343)
Protocol: Cell culture and transfections. Human embryonic kidney 293 (HEK293) cells were maintained in Dulbecco's Modified Eagle's Medium (DMEM) supplemented with 10% fetal bovine serum, 100 unit/ml penicillin/streptomycin at 37° C. in a humidified atmosphere with 5% CO2. […]
BRET assays in living cells. […] BRET values were then collected using a Mithras™ LB940 Multimode Microplate Reader or a TRISTAR® LB942 Multimode Microplate Reader, equipped with the following filters: 400 nm±70 nm (energy donor) and 515 nm±20 nm (energy acceptor). BRET values were determined by calculating the ratio of the light emitted by GFP (515 nm) over the light emitted by the Rluc (400 nm). To determine the % of activation (Stim as % of basal), BRET values obtained for the agonist treated cells where expressed as a percentage of the BRET values obtained with the corresponding cells treated with vehicle.
Kinetics experiments. BRET assays were performed as described previously, except that BRET readings were collected at regular intervals, 5 min after coelenterazine addition, while ligands and vehicle were injected to the cells after 30 sec of BRET measurements.

CCCCC[C@H](O)/C=C/[C@@H]1[C@@H](C/C=C\CCCC(=O)O)[C@H]2CO[C@@H]1C2 [U-46619]
pEC50 (TPαR [1]): 8.08
pEC50 (TPαR [2]): 8.37
pEC50 ([3]; G-protein printed as Gβ, FIG. 3C): 9.30
pEC50 ([3]; Gα15/16, FIG. 3C): 8.18
